Earlier results in US20240382549A1, “USE OF MULBERRY EXTRACT FOR IMPROVING SLEEP QUALITY AND/OR SUBSEQUENT BEHAVIOURAL OUTCOMES” (SOCIETE DES PRODUITS NESTLE S.A., priority 2021, published 2024).

Settings: earlier study; 12.5 mg DNJ in capsule, co-ingestion with maltodextrin

In the case of OC[C@H]1NC[C@H](O)[C@@H](O)[C@@H]1O [DNJ, 1-deoxynojirimycin], the “reduction of PPGR” value is given as 14%.
